Results as given in US20230190760A1, “ADVANTAGEOUS THERAPIES FOR DISORDERS MEDIATED BY IKAROS OR AIOLOS” (C4 Therapeutics, Inc., priority 2020, published 2023).
“Also recorded” adds a separate entry of the source.

Tests used:
H929 PomR tumors = test: Pomalidomide resistant H929 PomR xenograft; format: in vivo, mice; conditions: 100 μg/kg/day PO
From the text: Data are expressed as MTV±SEM.

[1] = tested on: Caspase 3/7 activity in NCIH929 multiple myeloma cells; test: Apoptosis induction, Caspase 3/7 activity in NCIH929 cells; format: cell-based
Description: 30 μL NCIH929 cells were seeded into the 384-well plates in RPMI medium containing 10% FBS and 0.05 mM 2-mercaptoethanol at a cell density of 1000 cells per well. Cells treated in the absence of the test compound were the negative control. Following compound treatment, cells were incubated at 37° C. with 5% CO2 for 72 hr. 30 μL reconstituted Caspase 3/7 Assay detection reagent was added to each well and luminescence was acquired on EnVision™ Multilabel Reader (PerkinElmer, Santa Clara, Calif., USA).

NCIH929.1 cells = test: NCIH929.1 cell viability assay (CellTiter-Glo, GI50); format: cell-based; conditions: 96 hr
tumor xenografts = test: Mouse xenograft tumor models (summary); format: in vivo
Description: Compound 1 efficacy in two multiple myeloma cell lines (NC-H929) and (RPMI-8226) was evaluated at four different doses: 3 μg/kg, 10 μg/kg, 30 μg/kg, and 100 μg/kg. Compound 1 was administered QD (every day) orally (PO). […]

[2] = tested on: germinal center B-cell like DLBCL lines; test: Anti-cancer activity in GCB-DLBCL cell lines; format: cell-based; conditions: six of eleven responsive, read-out: mean IC50 amongst the responsive lines
[3] = tested on: proteins in DL40 tumor lysates; test: Global proteomics of ALCL ALK+ DL40 xenograft tumors, mice treated orally with 100 μg/kg; format: in vivo, mouse
Description: NOD SCI mouse bearing ALCL ALK+DL40 xenografts were treated orally with 100 μg/kg of Compound 1. After 1, 4, 24 and 48 hour treatment, biological duplicates of tumoral cells were harvested, washed twice with PBS, and snap frozen in liquid nitrogen. Samples were resuspended in lysis buffer [8 M urea, 50 mM EPPS (pH 8.5), 50 mM NaCl, lx protease inhibitor cocktail] and lysed by sonication. Lysates were centrifuged at maximum speed, reduced for 1 hour at room temperature with 5 mM TCEP, and the cysteine residues were then alkylated with 15 mM iodoacetamide (room temperature, in dark, 30 minutes). Protein content was extracted twice by methanol-chloroform precipitation and subsequent ice-cold acetone washes. Protein pellets were resuspended in 8 M urea, 50 mM EPPS (pH 8.5) buffer and protein concentrations were measured by BCA assay. Samples were then diluted to 4 M urea with 50 mM EPPS (pH 8.5) and digested at 37° C. for 1 hour with endoproteinase Lys-C, at a 1/100 enzyme/protein ratio. The mixtures were then diluted to 1 M urea with 50 mM EPPS (pH 8.5) and trypsin was added at a 1/50 enzyme/protein ratio. The reaction was incubated overnight at 37° C. and stopped by acidification with formic acid 0.5% (v/v). Peptides were loaded on tC18 SepPak solid-phase extraction cartridges and lyophilized.
For peptide labeling, 100 μg of peptides per sample was prepared at […] concentration in 200 mM EPPS (pH 8.5), ACN was added to a final concentration of 30% and then 50 μg of each TMT 10 reagent. After 1 hour incubation at room temperature, reactions were quenched with 0.3% hydroxylamine for 15 minutes and mixed equally. The mixed sample was desalted using the tC18 SepPak solid-phase extraction cartridges, and lyophilized. Dried peptides were resuspended in 5% ACN, 10 mM NH4HCO3 pH 8 and fractionated in a basic pH reversed phase chromatography using a HPLC equipped with a 3.5 μm XBridge Peptide BEH C18 column. 96 fractions were collected, which were consolidated into 24, of which only 12 nonadjacent samples were analyzed. Samples were desalted, dried via vacuum centrifugation and reconstituted in 12 μL of 5% formic for LC-MS/MS analysis.
A third of each sample (4 μL) was separated by reversed phase chromatography using an EASY-Spray C18 column (2 μm particle size, 250 mm length×75 μm ID) mounted in an EASY-nLC 1200 LC pump coupled to an Orbitrap Fusion Lumos Tribid mass spectrometer. Peptides were separated using a 420 min gradient of 2 to 30% acetonitrile at a flow rate of ˜300 nL/min. Each analysis was performed using the multi-notch MS3 (SPS-MS3) scan. For the identification and relative quantification, all RAW files obtained from the mass spectrometer were transformed using SEQUEST-based software. Briefly, mass spectra were searched against the human Uniprot database (February 2016) concatenated with a database composed of all protein sequences in the reversed order as well as known contaminants. In all SEQUEST searches, precursor ion tolerance was set at 25 ppm and product ion tolerance at 0.9 Da, including methionine oxidation (+15.9949 Da) and cysteine carbamidomethylation (+57.0215 Da) as variable modifications. TMT tag (+229.1629 Da) on lysine residues and peptide N-termini were set as static modifications. Peptide-spectrum matches (PSMs) were performed using a linear discriminant analysis and adjusted to a […]. Peptide intensities were quantified by extracting the signal-to-noise ratio and proteins were further collapsed to a final protein-level FDR of 2%. Protein quantification values were exported to Excel, GraphPad Prism 7 or Perseus14 for further analysis.

RPMI-8226 tumors = test: RPMI-8226 xenograft, crossover from pomalidomide to Compound 1; format: in vivo, mice; conditions: 100 μg/kg/day
Description: Vehicle treated animals were treated for 28 days until tumors reached a MTV of 2211 mm^3. […] Data are expressed as MTV±SEM.
Tumor growth was monitored throughout the study. […] Measurements were twice weekly. The health of the mice was monitored, and noteworthy clinical observations were recorded. Acceptable toxicity was defined as a group's mean BW loss of less than 20% during the study and not more than one treatment related death among ten treated animals, or 10%.
Animals were weighed on a twice weekly schedule.

SMILES: O=C1CC[C@H](N2C(=O)c3cccc4c(Cc5ccc(CN6CCOCC6)cc5)ccc2c34)C(=O)N1 (single isomer, unassigned) [Compound 1]
- tumors versus pomalidomide 3000 μg/kg/day (H929 PomR tumors): smaller
- Maximum caspase 3/7 activity ([1]; 72 hours): > 2 fold
- EC50 ([1]; Homo sapiens, NCI-H929, 72 h, read-out: EC50, caspase 3/7 activity): 0.58 nM
- GI50 (NCIH929.1 cells): 0.0743 nM
- tumor response (tumor xenografts; daily dosing at 30 μg/kg/day to 100 μg/kg/day, several tumor xenografts): durable tumor regression
- efficacy (tumor xenografts; from 3 μg/kg/day to 100 μg/kg/day): dose dependent efficacy
- IC50 [2]: 12 nM
- Log2 FC vs Vehicle, IKZF1 ([3]; 4 Hour): −2.466
- Log2 FC vs Vehicle, IKZF3 ([3]; 4 Hour): −2.006
- Log2 FC vs Vehicle, ACTA1 ([3]; 24 Hour): −1.089
- Log2 FC vs Vehicle, ACTN2 ([3]; 24 Hour): −1.304
- Log2 FC vs Vehicle, AK1 ([3]; 24 Hour): −1.041
- Log2 FC vs Vehicle, APOBEC2 ([3]; 24 Hour): −1.355
- Log2 FC vs Vehicle, ATP2A1 ([3]; 24 Hour): −1.427
- Log2 FC vs Vehicle, CASQ1 ([3]; 24 Hour): −1.333
- Log2 FC vs Vehicle, CKM ([3]; 24 Hour): −1.248
- Log2 FC vs Vehicle, CKMT2 ([3]; 24 Hour): −1.544
- Log2 FC vs Vehicle, FHL1 ([3]; 24 Hour): −1.311
- Log2 FC vs Vehicle, IKZF1 ([3]; 24 Hour): −2.515
- Log2 FC vs Vehicle, IKZF3 ([3]; 24 Hour): −1.761
- Log2 FC vs Vehicle, JPH2 ([3]; 24 Hour): −1.117
- Log2 FC vs Vehicle, KLHL41 ([3]; 24 Hour): −1.142
- Log2 FC vs Vehicle, LDB3 ([3]; 24 Hour): −1.136
- Log2 FC vs Vehicle, MYBPC1 ([3]; 24 Hour): −1.366
- Log2 FC vs Vehicle, MYBPC2 ([3]; 24 Hour): −1.146
- Log2 FC vs Vehicle, MYH1 ([3]; 24 Hour): −1.258
- Log2 FC vs Vehicle, MYH2 ([3]; 24 Hour): −1.188
- Log2 FC vs Vehicle, MYH3 ([3]; 24 Hour): −1.165
- Log2 FC vs Vehicle, MYH4 ([3]; 24 Hour): −1.05
- Log2 FC vs Vehicle, MYH7 ([3]; 24 Hour): −2.977
- Log2 FC vs Vehicle, MYH7B ([3]; 24 Hour): −1.231
- Log2 FC vs Vehicle, MYH13 ([3]; 24 Hour): −1.102
- Log2 FC vs Vehicle, MYL1 ([3]; 24 Hour): −1.3
- Log2 FC vs Vehicle, MYL4 ([3]; 24 Hour): −1.344
- Log2 FC vs Vehicle, MYLPF ([3]; 24 Hour): −1.434
- Log2 FC vs Vehicle, MYOM1 ([3]; 24 Hour): −1.201
- Log2 FC vs Vehicle, NEB ([3]; 24 Hour): −1.184
- Log2 FC vs Vehicle, OAS1 ([3]; 24 Hour): 1.172
- Log2 FC vs Vehicle, PVALB ([3]; 24 Hour): −1.105
- Log2 FC vs Vehicle, PYGM ([3]; 24 Hour): −1.139
- Log2 FC vs Vehicle, SPR ([3]; 24 Hour): 1.088
- Log2 FC vs Vehicle, SRL ([3]; 24 Hour): −1.252
- Log2 FC vs Vehicle, TNNC2 ([3]; 24 Hour): −1.035
- Log2 FC vs Vehicle, TNNI2 ([3]; 24 Hour): −1.377
- Log2 FC vs Vehicle, TPM1 ([3]; 24 Hour): −1.146
- Log2 FC vs Vehicle, TRIM72 ([3]; 24 Hour): −1.083
- Log2 FC vs Vehicle, TTN ([3]; 24 Hour): −1.117
- Log2 FC vs Vehicle, ZFP91 ([3]; 24 Hour): −1.279
- fold change, IKZF1 downregulated ([3]; 4 hours): 5.5
- fold change, IKZF3 downregulated ([3]; 4 hours): 4.1
- selectivity, proteins degraded ([3]; 4 hours post a single dose of 100 μg/kg, >7900 proteins detected): degrading only IKZF1/3
- tumor volume after crossover from pomalidomide (RPMI-8226 tumors): rapid tumor regression; also recorded: began to decrease
